The source of these data is US20090054493A1, “THIAZOLE DERIVATIVES AS PPAR DELTA LIGANDS AND THEIR MANUFACTURING PROCESS” (priority 2005, published 2009).

One data set has as its target T1, PPARα (Homo sapiens, UniProt Q07869).
T1 construct: full-length PPARs plasmid DNA; expressed in transfected cells; host or cells: CV-1 cells
T1 sequence (Q07869 1-468): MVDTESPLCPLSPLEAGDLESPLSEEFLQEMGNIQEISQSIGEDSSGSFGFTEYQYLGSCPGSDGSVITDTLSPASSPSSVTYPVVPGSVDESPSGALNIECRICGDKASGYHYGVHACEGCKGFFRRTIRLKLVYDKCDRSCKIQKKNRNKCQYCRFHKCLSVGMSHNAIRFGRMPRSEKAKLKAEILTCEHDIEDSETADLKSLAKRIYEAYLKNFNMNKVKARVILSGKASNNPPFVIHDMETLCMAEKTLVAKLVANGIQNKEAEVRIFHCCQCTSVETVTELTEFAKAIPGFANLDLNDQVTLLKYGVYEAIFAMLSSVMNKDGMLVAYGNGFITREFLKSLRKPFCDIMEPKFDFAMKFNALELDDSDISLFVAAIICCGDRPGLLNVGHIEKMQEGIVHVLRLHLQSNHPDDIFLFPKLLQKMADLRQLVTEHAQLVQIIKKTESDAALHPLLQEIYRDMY
Kind of data set: Transfection assay (luciferase reporter) in CV-1 cells, PPARα. Format: cell-based. The following applies: full-length PPAR plasmid, luciferase normalized with β-galactosidase. As for the experimental part:
(§1) The compounds prepared in Examples were tested for PPARδ activity by a transfection assay. In addition, the compounds were tested for selectivity for PPARα and PPARγ, the subtypes of PPARs, and also tested for toxicity by a MTT assay.
(§2) A transfection assay was performed using CV-1 cells. The culture of the cells was performed using a DMEM medium (10% FBS, DBS (delipidated) and 1% penicillin/streptomycin) on a 96-well plate in a 5% carbon dioxide-containing incubator at 37° C. The test was performed in four steps consisting of cell inoculation, transfection, treatment of the compounds, and analysis of results. Specifically, CV-1 cells were inoculated onto a 96-well plate at a concentration of 5,000 cells/well, and after 24 hours, the cells were transfected. In the cell transfection, full-length PPARs plasmid DNA, reporter DNA that has luciferase activity and thus allows the identification of PPARs, and β-galactosidase DNA that provides the information of transfection efficiency, were used as transfection reagents. Each of the compounds developed in the present invention was dissolved in dimethylsulfoxide (DMSO) and transfected into the cells at various concentrations using media. The cells were cultured in an incubator for 24 and then lysed with lysis buffer. The lysed cells were measured for luciferase and β-galactosidase activities using a luminometer and a microplate reader. The measured luciferase values were normalized with the β-galactosidase values and graphed. From the graph, EC50 values were determined.
Background: A reporter such as luciferase makes a cellular process visible.

Data set [1] concerns the target T2, PPARγ (Homo sapiens, UniProt P37231).
T2 construct: full-length PPARs plasmid DNA; expressed in transfected cells; host or cells: CV-1 cells
T2 sequence (P37231 1-505): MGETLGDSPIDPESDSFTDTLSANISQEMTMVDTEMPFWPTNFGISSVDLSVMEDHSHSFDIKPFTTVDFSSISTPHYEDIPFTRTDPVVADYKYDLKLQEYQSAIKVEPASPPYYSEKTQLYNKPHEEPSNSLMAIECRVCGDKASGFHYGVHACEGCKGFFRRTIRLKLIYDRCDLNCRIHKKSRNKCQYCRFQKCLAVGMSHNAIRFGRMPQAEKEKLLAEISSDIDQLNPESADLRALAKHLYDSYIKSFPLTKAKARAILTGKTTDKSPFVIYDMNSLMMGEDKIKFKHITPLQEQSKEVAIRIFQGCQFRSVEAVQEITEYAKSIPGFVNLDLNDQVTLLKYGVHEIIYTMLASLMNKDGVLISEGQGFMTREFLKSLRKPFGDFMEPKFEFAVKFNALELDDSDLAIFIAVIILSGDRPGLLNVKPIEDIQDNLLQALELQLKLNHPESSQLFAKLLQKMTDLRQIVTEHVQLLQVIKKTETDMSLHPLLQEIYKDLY
Kind of data set: Transfection assay (luciferase reporter) in CV-1 cells, PPARγ. It counts as cell-based. The settings on record: full-length PPAR plasmid, luciferase normalized with β-galactosidase. How it is done:
as §1
as §2, with “The test was performed in four steps consisting of cell inoculation, transfection, treatment of the compounds, and analysis of results.” left out

The nature of another data set: MTT assay, cytotoxicity. It counts as cell-based. The settings on record: African green monkey, CV-1 cells, read-out: LC50 Cytotoxicity. As for the experimental part:
The compounds of Examples 47-97 according to the present invention were tested for cytotoxicity using a MTT assay. MTT is a water-soluble yellow substance, but if it is introduced into living cells, it will be degenerated into a water-insoluble purple crystal due to dehydrogenase contained in mitochondria. If this substance is dissolved in dimethylsulfoxide and then measured for absorbance at 550 nm, cytotoxicity can be assayed. The test method is as follows.
CV-1 cells were first inoculated onto a 96-well plate at a concentration of 5,000 cells/well. The inoculated cells were cultured in a 5% carbon dioxide-containing humidified incubator at 37° C. for 24 hours, and then treated with the inventive compounds at various concentrations. After 24 hours of culture, a MTT reagent was added to the cultured cells. After 15 minutes of culture, the resulting purple crystal was dissolved in dimethylsulfoxide and then measured for absorbance using a microplate reader. From the measured absorbance, cytotoxicity was assayed.
Background: Tetrazolium dyes change colour on reduction, which living cells bring about.

For data set [2], the target named is T3, PPARδ (Homo sapiens, UniProt Q03181).
T3 sequence (Q03181 1-441): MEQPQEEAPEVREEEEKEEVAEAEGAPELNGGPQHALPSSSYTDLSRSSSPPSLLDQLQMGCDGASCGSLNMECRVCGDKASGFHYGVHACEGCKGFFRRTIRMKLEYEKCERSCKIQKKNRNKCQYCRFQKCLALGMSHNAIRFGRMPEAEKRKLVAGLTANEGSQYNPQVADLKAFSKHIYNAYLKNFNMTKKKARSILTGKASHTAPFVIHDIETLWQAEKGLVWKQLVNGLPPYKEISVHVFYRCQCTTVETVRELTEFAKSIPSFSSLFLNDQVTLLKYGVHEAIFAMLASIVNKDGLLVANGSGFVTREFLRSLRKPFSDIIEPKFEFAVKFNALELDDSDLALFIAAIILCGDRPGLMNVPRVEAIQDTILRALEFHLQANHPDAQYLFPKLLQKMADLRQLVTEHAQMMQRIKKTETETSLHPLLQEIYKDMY
Kind of data set: Transfection assay (luciferase reporter) in CV-1 cells, PPARδ. It counts as cell-based. Also on record: full-length PPARs plasmid DNA; expressed in transfected cells; host or cells: CV-1 cells. The settings on record: full-length PPAR plasmid, luciferase normalized with β-galactosidase. How it is done:
as §1
as §2, with “The test was performed in four steps consisting of cell inoculation, transfection, treatment of the compounds, and analysis of results.” left out

Data set [3] concerns the target T3, PPARδ. The following applies: background art, cited from earlier work.
For data set [4], the target named is T4, PPARγ (Mus musculus, UniProt P37238).
T4 sequence (P37238 1-505): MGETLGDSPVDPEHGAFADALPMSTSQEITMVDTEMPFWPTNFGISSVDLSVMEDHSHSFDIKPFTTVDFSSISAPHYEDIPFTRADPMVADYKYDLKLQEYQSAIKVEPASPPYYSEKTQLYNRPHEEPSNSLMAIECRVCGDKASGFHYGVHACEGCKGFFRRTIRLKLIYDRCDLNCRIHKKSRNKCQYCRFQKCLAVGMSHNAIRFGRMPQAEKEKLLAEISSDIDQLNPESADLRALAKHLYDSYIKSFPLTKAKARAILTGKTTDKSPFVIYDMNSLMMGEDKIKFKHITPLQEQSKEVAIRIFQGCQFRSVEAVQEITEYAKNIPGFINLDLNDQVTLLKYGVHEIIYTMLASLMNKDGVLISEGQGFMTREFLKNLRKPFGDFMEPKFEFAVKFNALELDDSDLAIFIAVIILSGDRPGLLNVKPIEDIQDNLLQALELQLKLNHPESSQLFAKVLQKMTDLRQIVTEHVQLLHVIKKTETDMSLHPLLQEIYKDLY
The settings on record: test on rodents, background art; cited from earlier work.

Molecules are shown by their SMILES. Like-named read-outs stand apart in the source and are kept apart here.

As to `Cc1cc(SC(Cc2ccc(F)cc2F)c2sc(-c3ccc(C(F)(F)F)c(F)c3)nc2C)ccc1OCC(=O)O` (centres unmarked) [Example 96, 2-[4-[1-[2-[3-fluoro-4-(trifluoromethyl)phenyl]-4-methylthiazol-5-yl]-2-(2,4-difluorophenyl)ethylthio]-2-methylphenoxy]acetic acid], the EC50 on PPARα was above 10000 nM; at PPARδ [2], 4.8 nM. For the same compound, the “EC50 PPARγ” value on PPARγ [1] is listed as “ia”. The CC50 at 24 h in “MTT assay, cytotoxicity” was above 10000 nM.

Turning to `Cc1cc(SC(Cc2cc(F)ccc2Cl)c2sc(-c3ccc(C(F)(F)F)c(F)c3)nc2C)ccc1OCC(=O)O` (centres unmarked) [Example 97, 2-[4-[2-(2-chloro-5-fluorophenyl)-1-[2-[3-fluoro-4-(trifluoromethyl)phenyl]-4-methylthiazol-5-yl]ethylthio]-2-methylphenoxy]acetic acid], the “EC50 PPARα” value at PPARα was “ia”. In addition, the “EC50 PPARγ” value on PPARγ [1] is recorded as “ia”. The CC50 at 24 h in the data set “MTT assay, cytotoxicity” was above 30000 nM. This compound also yielded an EC50 at PPARδ [2] of 17.4 nM.

For the compound `CCCc1c(OCCCOc2ccc(OCC(=O)O)cc2)ccc(C(C)=O)c1O` [Example L-165041], at PPARδ [3], the “selectivity for hPPARδ than PPARα and PPARγ” value was 10 fold. Moreover, the EC50 at PPARδ [3] (hPPARδ) was 530 nM. On PPARγ [4], the “selectivity for PPARγ” value is recorded as “almost no selectivity”.

In general, EC50 refers to the concentration at which the effect is half-maximal.
